Structures can show the parent of a compound that is named as a salt.
Tests used:
[1] = test system: HepG2; test: HepG2 toxicity (resazurin), effect normalised to DMSO (DMSO = 0); higher = more features changed / larger toxic effect; conditions: incubation time: 70h incubation
[2] = test system: HeLa; test: HeLa toxicity: nuclei-count effect normalised to DMSO (DMSO = 0); higher = more features changed / larger toxic effect; conditions: incubation time: 24h incubation
[3] = test system: HeLa; test: Cell Painting percent induction (share of features beyond 2 z-scores vs DMSO); higher = more features changed / larger toxic effect; extreme values may be limits of the assay; conditions: incubation time: 24h incubation
[4] = test system: human spermatozoa; test: total motile sperm, percent change vs DMSO (non-capacitating); higher = more of the measured sperm population than DMSO, for viability, fewer PI-positive (dead) cells than DMSO
[5] = test system: human spermatozoa; test: viability fold change, 1 - (PI-positive fraction / DMSO median); higher = more of the measured sperm population than DMSO, for viability, fewer PI-positive (dead) cells than DMSO; conditions: incubation time: 3h, non-capacitating
[6] = test system: human spermatozoa; test: progressively motile sperm, percent change vs DMSO (capacitating); higher = more of the measured sperm population than DMSO, for viability, fewer PI-positive (dead) cells than DMSO; conditions: incubation time: 30min incubation
[7] = test system: human spermatozoa; test: hyperactivated motile sperm, percent change vs DMSO (capacitating); higher = more of the measured sperm population than DMSO, for viability, fewer PI-positive (dead) cells than DMSO; conditions: incubation time: 30min incubation
[8] = test system: human spermatozoa; test: change in acrosome-reacted (PNA+) sperm vs DMSO, no agonist (capacitating); higher = more of the measured sperm population than DMSO, for viability, fewer PI-positive (dead) cells than DMSO; conditions: incubation time: 3h
[9] = test system: human spermatozoa; test: acrosome-reacted (PNA+) sperm after agonist cocktail, percent change vs DMSO (capacitating); higher = more of the measured sperm population than DMSO, for viability, fewer PI-positive (dead) cells than DMSO; conditions: incubation time: 3h, capacitating + agonist cocktail 1h
[10] = test system: human spermatozoa; test: progressively motile sperm, percent change vs DMSO (non-capacitating); higher = more of the measured sperm population than DMSO, for viability, fewer PI-positive (dead) cells than DMSO; extreme values may be limits of the assay
[11] = incubation time: 10min incubation, 9.99 µM
[12] = incubation time: 10min incubation, 29.9 µM
[13] = incubation time: 3h incubation, 9.99 µM
[14] = incubation time: 3h incubation, 29.9 µM
[15] = incubation time: 6h incubation, 9.99 µM
[16] = incubation time: 6h incubation, 29.9 µM
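Throughout, for progressively motile sperm, percent change vs DMSO (non-capacitating): pooled live human sperm from at least 3 donors, tracked by automated microscopy in 0.5 s time-lapse movies, compounds at 10 and 30 µM, versus median of 16 DMSO wells per plate.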
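Throughout, for total motile sperm, percent change vs DMSO (non-capacitating): sperm pooled from at least 3 donors, tracked in 0.5 s time-lapse movies by automated microscopy after 10 min, 3 h or 6 h with compound at 10 or 30 µM.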

Row | SMILES | HepG2 toxicity ([1]; 10 µM) [%] | HepG2 toxicity ([1]; 30 µM) [%] | HeLa toxicity: nuclei-count effect normalised ([2]; 9.99 µM) [%] | HeLa toxicity: nuclei-count effect normalised ([2]; 29.9 µM) [%] | Cell Painting percent induction ([3]; 9.99 µM) [%] | Cell Painting percent induction ([3]; 29.9 µM) [%] | total motile sperm [4, 11] [%] | total motile sperm [4, 12] [%] | total motile sperm [4, 13] [%] | total motile sperm [4, 14] [%] | total motile sperm [4, 15] [%] | total motile sperm [4, 16] [%] | viability fold change ([5]; 9.99 µM) | viability fold change ([5]; 29.9 µM) | progressively motile sperm ([6]; 9.99 µM) [%] | progressively motile sperm ([6]; 29.9 µM) [%] | hyperactivated motile sperm ([7]; 9.99 µM) [%] | hyperactivated motile sperm ([7]; 29.9 µM) [%] | change in acrosome-reacted ([8]; 9.99 µM) [%] | change in acrosome-reacted ([8]; 29.9 µM) [%] | acrosome-reacted ([9]; 9.99 µM) [%] | acrosome-reacted ([9]; 29.9 µM) [%] | progressively motile sperm [10, 11] [%] | progressively motile sperm [10, 12] [%] | progressively motile sperm [10, 13] [%] | progressively motile sperm [10, 14] [%] | progressively motile sperm [10, 15] [%] | progressively motile sperm [10, 16] [%]
1 | CCOc1ccc(-c2nc(-c3cccc4c3CCC4NCCO)no2)cc1OCC (stereo unspecified) [CYM 5442 hydrchloride] | 14.4 | 101 | -0.601 | 18 | 4.97 | 3.13 | 0.362 | -6.08 | 7.62 | -11.7 | 7.81 | -12.3 | -0.289 | -0.544 | 3.76 | 6.19 | 46.2 | 45.7 | 2.58 | 4.61 | 63 | 75.1 | 15.6 | 3.34 | 40 | 14.5 | 51.9 | 21.7
2 | N=C(N)Nc1nc(-c2ccc(Cl)cc2)cs1 [n-[4-(4-Chlorophenyl)-1,3-thiazol-2-yl]guanidine] | 3.6 | -2.59 | 9.82 | 14.3 | 0 | 0.108 | 0.678 | 2.58 | 1.9 | -3.38 | -0.743 | 0.262 | -0.638 | -0.59 | 10.1 | 17 | 17.5 | 17.3 | 1.42 | 1.64 | 15.2 | 21.5 | 9.51 | 8.48 | 24 | 14.5 | 19.1 | 31
3 | CC1(C)CC=C(c2ccccc2)c2cc(/C=C/c3ccc(C(=O)O)cc3)ccc21 | 0.925 | -8.39 | 6.08 | 8.35 | 0 | 0 | 2.52 | 2.83 | 0.861 | 0.353 | -4.19 | 0.705 | -1.22 | -0.368 | -4.62 | -9.29 | -3.7 | -30.1 | 1.18 | 1.38 | 10.6 | 7.54 | 8.04 | 5.98 | 18.8 | 9.32 | 6.74 | 13
4 | Cc1cc2c(C(C)C)c(O)c(O)c(C=O)c2c(O)c1-c1c(C)cc2c(C(C)C)c(O)c(O)c(C=O)c2c1O [Gossypol] | 54.9 | 102 | 27.1 | 73.1 | 0.072 | 17.1 | -1.73 | 0.377 | -2.73 | -0.0743 | -0.633 | -2.29 | -0.0154 | 0.577 | -0.382 | 7.08 | -21.9 | -39.1 | 1.41 | 1.17 | -15.6 | -28.9 | -3.27 | -2.36 | 3.33 | -8.54 | 12.2 | -12.2
5 | Cc1[nH]c(/C=C2\C(=O)Nc3ccc(S(=O)(=O)Cc4c(Cl)cccc4Cl)cc32)c(C)c1C(=O)N1CCC[C@@H]1CN1CCCC1 | 102 | 103 | 94.7 | 92.9 | 20.4 | 17.5 | -0.103 | -18.4 | -9.66 | -49.8 | -12.2 | -57.4 | -3.34 | -3.76 | -3.18 | -76.5 | -20.8 | -80.4 | 3.55 | 20.4 | -1.2 | 30.3 | 6.38 | -35.3 | 20.9 | -68.2 | 18.6 | -82
6 | COc1cc(N2CCOCC2)ccc1Nc1ncc(F)c(Nc2ccccc2NS(C)(=O)=O)n1 | 11.9 | 14 | 12 | 70.3 | 0.324 | 14.1 | -2.71 | -11.9 | -6.38 | -20.1 | -5.57 | -17.4 | 0.0946 | 0.0988 | -10.8 | -4.79 | 7.89 | -19.1 | 0.77 | -0.256 | -20.4 | -26.8 | -27.7 | -60.9 | -32.8 | -74.5 | -27 | -69.7
7 | c1ccc2c(c1)SCc1c-2[nH]c2ccccc12 | 10.5 | 102 | 83.9 | 99.3 | 30.2 | 46 | -62 | -88.1 | -66.5 | -92.9 | -54.6 | -91.4 | 0.409 | 0.115 | -60.3 | -95.6 | -56.3 | -84.3 | 0.192 | 0.819 | 3.76 | -34.5 | -81.3 | -99.9 | -74.4 | -100 | -76 | -99.9
8 | CN(C)CCCn1cc(C2=C(c3c[nH]c4ccccc34)C(=O)NC2=O)c2ccccc21 | -5.59 | 8.33 | -5.34 | 3.61 | 0.072 | 0.072 | 1.63 | 0.0178 | -1.97 | -13.1 | 1.29 | -6.7 | -0.204 | -0.45 | 4 | 5.48 | 11.8 | -3.96 | 0.106 | 0.127 | -2.39 | -7.18 | 3.74 | 4.75 | 9.83 | -7.22 | 23.9 | -4.1
9 | NC(=O)Nc1cc(-c2cccc(F)c2)sc1C(=O)N[C@H]1CCCNC1 [AZD 7762 hydrochloride] | 101 | 101 | 80.1 | 76.8 | 17 | 11 | -11.3 | -17.4 | -10.7 | -22.4 | -13.2 | -23.1 | -0.829 | -1.22 | -19.7 | -30.7 | -57.9 | -72 | 0.07 | 1.03 | -44.6 | -44 | -49.3 | -57.6 | -35.4 | -48.7 | -30.8 | -49.2
10 | Nc1ccc(-c2ccc3ncc4ccc(=O)n(-c5cccc(C(F)(F)F)c5)c4c3c2)cn1 [Torin 2] | 97.2 | 96 | 83.4 | 96.5 | 4.68 | 29.7 | -0.268 | 1.3 | -8.49 | -9.72 | -12.1 | -16.1 | -0.979 | -0.723 | 7.66 | 15.1 | 180 | 16.9 | 1.71 | 1.79 | 116 | 129 | 38.8 | 34.7 | 76.3 | 50.7 | 89.8 | 47.4
11 | COc1cc2ncn(-c3cc(OCc4ccccc4C(F)(F)F)c(C(N)=O)s3)c2cc1OC | 17.5 | 9.88 | 78.2 | 78.9 | 2.81 | 2.27 | -14.5 | -45.8 | -27.6 | -55.7 | -30.1 | -57.1 | -1.45 | -1.24 | -3.24 | -34.8 | 157 | 59.7 | 0.45 | -0.12 | 123 | 120 | 16.5 | -45.9 | 26.5 | -69.6 | 43.2 | -68.4
12 | COc1cn(-c2ccc(-n3cccn3)cc2F)nc(-c2ccnn2-c2ccccc2)c1=O [Tak-063] | -4.05 | 8.05 | 6.28 | 2.94 | 1.19 | 3.31 | -3.81 | -3.32 | -11 | -14.9 | -15.5 | -20.7 | -1.78 | -1.87 | 4.06 | 10.1 | 321 | 303 | 0.708 | 0.393 | 114 | 117 | 26.4 | 27.7 | 64.8 | 48.7 | 74.2 | 44
13 | O=C(Nc1ccc([N+](=O)[O-])cc1Cl)c1cc(Cl)ccc1O [Niclosamide] | -3.07 | 1.35 | 31.1 | 32.3 | 8.47 | 7.82 | -2.96 | -1.25 | -8.32 | -3.27 | -6.27 | -2.49 | 0.501 | 0.431 | -1.8 | -5.95 | -59.6 | -70.1 | 1.03 | 1.07 | 7.25 | 4.65 | -28.1 | -27.6 | -26.2 | -30.1 | -18.2 | -26.8
14 | C=CC[C@@H]1/C=C(\C)C[C@H](C)C[C@H](OC)[C@H]2O[C@@](O)(C(=O)C(=O)N3CCCC[C@H]3C(=O)O[C@H](/C(C)=C/[C@@H]3CC[C@@H](O)[C@H](OC)C3)[C@H](C)[C@@H](O)CC1=O)[C@H](C)C[C@@H]2OC [Tacrolimus] | -3.53 | 10.6 | -1.94 | 18.1 | 0 | 0.072 | 3.53 | 3.6 | -6.77 | -2.1 | -8.35 | -8.9 | -1.97 | -2.04 | 0.476 | -0.37 | -13.3 | -55.8 | 0.533 | 0.376 | -13.9 | -24 | 5.82 | 0.659 | -17.7 | -17.9 | -13.1 | -20.1
15 | CCN(CC)C(=S)SSC(=S)N(CC)CC [Disulfiram] | -2.95 | 20.2 | 16.7 | 49.8 | 0 | 0.576 | -80.8 | -91.5 | -94.3 | -91.5 | -88.6 | -93.2 | -0.587 | -1.58 | -96.3 | -99.9 | -82.7 | -88.4 | 16.4 | 16 | 86.5 | 13 | -96.4 | -100 | -100 | -99.9 | -99.3 | -100
16 | O=c1sn(-c2cccc3ccccc23)c(=O)n1Cc1ccccc1 [Tideglusib] | -4.62 | 4.74 | -2.47 | 7.35 | 0.036 | 0 | 2.52 | 3.97 | -5.07 | 0.868 | -6.75 | -2.88 | -1.71 | -1.3 | 9.17 | 6.85 | 17.7 | -11.8 | 0.723 | 0.984 | 5.65 | 6.56 | 4.02 | 2.42 | -2.59 | -0.339 | -4 | -0.265
17 | Nc1nonc1C(=O)c1cccc(OCc2nc3ccccc3[nH]2)c1 [ASI-8] | 7.95 | -4.37 | -5.48 | 1.8 | 0.036 | 0.072 | 3.13 | 2.79 | 1.2 | -0.414 | 3.96 | 1.2 | -0.34 | -0.223 | 11.1 | 6.99 | -38 | -39.8 | 0.432 | 0.568 | -14.8 | -14.9 | -2.86 | -2.99 | -14.7 | -20.6 | -17.4 | -29.2
